Legend:
Type in all cases: cell-based
[1] = test system: Streptococcus uberis; assay: Antibiotic susceptibility testing (colour of media), spiked milk; conditions: T~16 h, 37° C., bacteria samples 6d, plate configuration #3
[2] = test system: Escherichia coli; assay: as above; conditions: 37° C., plate configuration #3
[3] = test system: Staphylococcus aureus; assay: as above; conditions: for Colour of media: bacteria sample 5c; for Colour of media in each well: T~16 h, 37° C., plate configuration #3
[4] = test system: bacteria samples 4c, 4e, 5c, 5e, 6d; assay: Antibiotic susceptibility testing (colour of media), plate configuration #3, reference colours at 0 hours for bacteria samples 4c, 4e, 5c, 5e, 6d; conditions: T~0 h
[5] = Benzyl Penicillin or Cloxacillin 1 μg/ml
[6] = Benzyl Penicillin or Cloxacillin 10 μg/ml
[7] = Benzyl Penicillin or Cloxacillin 100 μg/ml
[8] = Benzyl Penicillin or Cloxacillin 1,000 μg/ml
[9] = Benzyl Penicillin or Cloxacillin 10,000 μg/ml

SMILES: CC1(C)S[C@@H]2[C@H](NC(=O)Cc3ccccc3)C(=O)N2[C@H]1C(=O)O [benzyl penicillin]
- Colour of media in each well [1, 5]: red
- Colour of media in each well [1, 6]: red
- Colour of media in each well [1, 7]: red
- Colour of media in each well [1, 8]: red
- Colour of media in each well [1, 9]: red
- Colour of media in each well ([2]; T~16 h, bacteria samples 4c, Benzyl Penicillin or Cloxacillin 1 μg/ml): yellow
- Colour of media in each well ([2]; T~16 h, bacteria samples 4c, Benzyl Penicillin or Cloxacillin 10 μg/ml): yellow
- Colour of media in each well ([2]; T~16 h, bacteria samples 4c, Benzyl Penicillin or Cloxacillin 100 μg/ml): red
- Colour of media in each well ([2]; T~16 h, bacteria samples 4c, Benzyl Penicillin or Cloxacillin 1,000 μg/ml): red
- Colour of media in each well ([2]; T~16 h, bacteria samples 4c, Benzyl Penicillin or Cloxacillin 10,000 μg/ml): red
- Colour of media in each well ([2]; t~16 h, bacteria samples 4e, Benzyl Penicillin or Cloxacillin 1 μg/ml): yellow
- Colour of media in each well ([2]; t~16 h, bacteria samples 4e, Benzyl Penicillin or Cloxacillin 10 μg/ml): yellow
- Colour of media in each well ([2]; t~16 h, bacteria samples 4e, Benzyl Penicillin or Cloxacillin 100 μg/ml): Red
- Colour of media in each well ([2]; t~16 h, bacteria samples 4e, Benzyl Penicillin or Cloxacillin 1,000 μg/ml): Red
- Colour of media in each well ([2]; t~16 h, bacteria samples 4e, Benzyl Penicillin or Cloxacillin 10,000 μg/ml): Red
- Colour of media ([3]; T = 0 hours (pre incubation), drug 0.01 μg/ml, Mueller Hinton (70 ul composition 26)): red
- Colour of media ([3]; T = 0 hours (pre incubation), drug 0.01 μg/ml, Tryptic Soy (70 ul composition 2c)): red
- Colour of media ([3]; T = 0 hours (pre incubation), drug 0.01 μg/ml, Tryptic Soy, wells H (20 ul composition 2c)): red
- Colour of media ([3]; T = 0 hours (pre incubation), drug 0.05 μg/ml, Mueller Hinton (70 ul composition 26)): red
- Colour of media ([3]; T = 0 hours (pre incubation), drug 0.05 μg/ml, Tryptic Soy (70 ul composition 2c)): red
- Colour of media ([3]; T = 0 hours (pre incubation), drug 0.05 μg/ml, Tryptic Soy, wells H (20 ul composition 2c)): red
- Colour of media ([3]; T = 0 hours (pre incubation), drug 0.1 μg/ml, Mueller Hinton (70 ul composition 26)): red
- Colour of media ([3]; T = 0 hours (pre incubation), drug 0.1 μg/ml, Tryptic Soy (70 ul composition 2c)): red
- Colour of media ([3]; T = 0 hours (pre incubation), drug 0.1 μg/ml, Tryptic Soy, wells H (20 ul composition 2c)): red
- Colour of media ([3]; T = 0 hours (pre incubation), drug 0.5 μg/ml, Mueller Hinton (70 ul composition 26)): red
- Colour of media ([3]; T = 0 hours (pre incubation), drug 0.5 μg/ml, Tryptic Soy (70 ul composition 2c)): red
- Colour of media ([3]; T = 0 hours (pre incubation), drug 0.5 μg/ml, Tryptic Soy, wells H (20 ul composition 2c)): red
- Colour of media ([3]; T = 0 hours (pre incubation), drug 1 μg/ml, Mueller Hinton (70 ul composition 26)): red
- Colour of media ([3]; T = 0 hours (pre incubation), drug 1 μg/ml, Tryptic Soy (70 ul composition 2c)): red
- Colour of media ([3]; T = 0 hours (pre incubation), drug 1 μg/ml, Tryptic Soy, wells H (20 ul composition 2c)): red
- Colour of media ([3]; T = 0 hours (pre incubation), drug 5 μg/ml, Mueller Hinton (70 ul composition 26)): red
- Colour of media ([3]; T = 0 hours (pre incubation), drug 5 μg/ml, Tryptic Soy (70 ul composition 2c)): red
- Colour of media ([3]; T = 0 hours (pre incubation), drug 5 μg/ml, Tryptic Soy, wells H (20 ul composition 2c)): red
- Colour of media ([3]; T = 0 hours (pre incubation), drug 10 μg/ml, Mueller Hinton (70 ul composition 26)): red
- Colour of media ([3]; T = 0 hours (pre incubation), drug 10 μg/ml, Tryptic Soy (70 ul composition 2c)): red
- Colour of media ([3]; T = 0 hours (pre incubation), drug 10 μg/ml, Tryptic Soy, wells H (20 ul composition 2c)): red
- Colour of media ([3]; T = 0 hours (pre incubation), drug 50 μg/ml, Mueller Hinton (70 ul composition 26)): red
- Colour of media ([3]; T = 0 hours (pre incubation), drug 50 μg/ml, Tryptic Soy (70 ul composition 2c)): red
- Colour of media ([3]; T = 0 hours (pre incubation), drug 50 μg/ml, Tryptic Soy, wells H (20 ul composition 2c)): red
- Colour of media ([3]; T = 0 hours (pre incubation), drug 100 μg/ml, Mueller Hinton (70 ul composition 26)): red
- Colour of media ([3]; T = 0 hours (pre incubation), drug 100 μg/ml, Tryptic Soy (70 ul composition 2c)): red
- Colour of media ([3]; T = 0 hours (pre incubation), drug 100 μg/ml, Tryptic Soy, wells H (20 ul composition 2c)): red
- Colour of media ([3]; T = 0 hours (pre incubation), drug 500 μg/ml, Mueller Hinton (70 ul composition 26)): red
- Colour of media ([3]; T = 0 hours (pre incubation), drug 500 μg/ml, Tryptic Soy (70 ul composition 2c)): red
- Colour of media ([3]; T = 0 hours (pre incubation), drug 500 μg/ml, Tryptic Soy, wells H (20 ul composition 2c)): red
- Colour of media ([3]; T = 15-24 h at 35° C., drug 0.01 μg/ml, Mueller Hinton (70 ul composition 26)): red
- Colour of media ([3]; T = 15-24 h at 35° C., drug 0.01 μg/ml, Tryptic Soy (70 ul composition 2c)): yellow
- Colour of media ([3]; T = 15-24 h at 35° C., drug 0.01 μg/ml, Tryptic Soy, wells H (20 ul composition 2c)): red
- Colour of media ([3]; T = 15-24 h at 35° C., drug 0.05 μg/ml, Mueller Hinton (70 ul composition 26)): red
- Colour of media ([3]; T = 15-24 h at 35° C., drug 0.05 μg/ml, Tryptic Soy (70 ul composition 2c)): red
- Colour of media ([3]; T = 15-24 h at 35° C., drug 0.05 μg/ml, Tryptic Soy, wells H (20 ul composition 2c)): red
- Colour of media ([3]; T = 15-24 h at 35° C., drug 0.1 μg/ml, Mueller Hinton (70 ul composition 26)): red
- Colour of media ([3]; T = 15-24 h at 35° C., drug 0.1 μg/ml, Tryptic Soy (70 ul composition 2c)): red
- Colour of media ([3]; T = 15-24 h at 35° C., drug 0.1 μg/ml, Tryptic Soy, wells H (20 ul composition 2c)): red
- Colour of media ([3]; T = 15-24 h at 35° C., drug 0.5 μg/ml, Mueller Hinton (70 ul composition 26)): red
- Colour of media ([3]; T = 15-24 h at 35° C., drug 0.5 μg/ml, Tryptic Soy (70 ul composition 2c)): red
- Colour of media ([3]; T = 15-24 h at 35° C., drug 0.5 μg/ml, Tryptic Soy, wells H (20 ul composition 2c)): red
- Colour of media ([3]; T = 15-24 h at 35° C., drug 1 μg/ml, Mueller Hinton (70 ul composition 26)): red
- Colour of media ([3]; T = 15-24 h at 35° C., drug 1 μg/ml, Tryptic Soy (70 ul composition 2c)): red
- Colour of media ([3]; T = 15-24 h at 35° C., drug 1 μg/ml, Tryptic Soy, wells H (20 ul composition 2c)): red
- Colour of media ([3]; T = 15-24 h at 35° C., drug 5 μg/ml, Mueller Hinton (70 ul composition 26)): red
- Colour of media ([3]; T = 15-24 h at 35° C., drug 5 μg/ml, Tryptic Soy (70 ul composition 2c)): red
- Colour of media ([3]; T = 15-24 h at 35° C., drug 5 μg/ml, Tryptic Soy, wells H (20 ul composition 2c)): red
- Colour of media ([3]; T = 15-24 h at 35° C., drug 10 μg/ml, Mueller Hinton (70 ul composition 26)): red
- Colour of media ([3]; T = 15-24 h at 35° C., drug 10 μg/ml, Tryptic Soy (70 ul composition 2c)): red
- Colour of media ([3]; T = 15-24 h at 35° C., drug 10 μg/ml, Tryptic Soy, wells H (20 ul composition 2c)): red
- Colour of media ([3]; T = 15-24 h at 35° C., drug 50 μg/ml, Mueller Hinton (70 ul composition 26)): red
- Colour of media ([3]; T = 15-24 h at 35° C., drug 50 μg/ml, Tryptic Soy (70 ul composition 2c)): red
- Colour of media ([3]; T = 15-24 h at 35° C., drug 50 μg/ml, Tryptic Soy, wells H (20 ul composition 2c)): red
- Colour of media ([3]; T = 15-24 h at 35° C., drug 100 μg/ml, Mueller Hinton (70 ul composition 26)): red
- Colour of media ([3]; T = 15-24 h at 35° C., drug 100 μg/ml, Tryptic Soy (70 ul composition 2c)): red
- Colour of media ([3]; T = 15-24 h at 35° C., drug 100 μg/ml, Tryptic Soy, wells H (20 ul composition 2c)): red
- Colour of media ([3]; T = 15-24 h at 35° C., drug 500 μg/ml, Mueller Hinton (70 ul composition 26)): red
- Colour of media ([3]; T = 15-24 h at 35° C., drug 500 μg/ml, Tryptic Soy (70 ul composition 2c)): red
- Colour of media ([3]; T = 15-24 h at 35° C., drug 500 μg/ml, Tryptic Soy, wells H (20 ul composition 2c)): red
- Colour of media in each well ([3]; bacteria samples 5c, Benzyl Penicillin or Cloxacillin 1 μg/ml): red
- Colour of media in each well ([3]; bacteria samples 5c, Benzyl Penicillin or Cloxacillin 10 μg/ml): red
- Colour of media in each well ([3]; bacteria samples 5c, Benzyl Penicillin or Cloxacillin 100 μg/ml): red
- Colour of media in each well ([3]; bacteria samples 5c, Benzyl Penicillin or Cloxacillin 1,000 μg/ml): red
- Colour of media in each well ([3]; bacteria samples 5c, Benzyl Penicillin or Cloxacillin 10,000 μg/ml): red
- Colour of media in each well ([3]; bacteria samples 5e, Benzyl Penicillin or Cloxacillin 1 μg/ml): red
- Colour of media in each well ([3]; bacteria samples 5e, Benzyl Penicillin or Cloxacillin 10 μg/ml): red
- Colour of media in each well ([3]; bacteria samples 5e, Benzyl Penicillin or Cloxacillin 100 μg/ml): red
- Colour of media in each well ([3]; bacteria samples 5e, Benzyl Penicillin or Cloxacillin 1,000 μg/ml): red
- Colour of media in each well ([3]; bacteria samples 5e, Benzyl Penicillin or Cloxacillin 10,000 μg/ml): red
- Colour of media in each well [4, 5]: Red
- Colour of media in each well [4, 6]: Red
- Colour of media in each well [4, 7]: Red
- Colour of media in each well [4, 8]: Red
- Colour of media in each well [4, 9]: Red
